Measurements from US8853258B2, “C-linked hydroxamic acid derivatives useful as antibacterial agents” (Pfizer Inc., priority 2009, dated 2014).
In brackets after ≈: the same amount, converted by molar mass. Like-named read-outs stand apart in the source and are kept apart here.

How the values were obtained:
Assay type in all cases: cell-based
[1] = tested on: Acinetobacter baumanii/haemolyticus: Multidrug-resistant clinical isolate (AB-3167); assay: MIC determination (CLSI), AB-3167; settings: for MIC: Acinetobacter baumannii
Method: (§1) The in vitro antibacterial activity of compounds described in the Examples was evaluated by minimum inhibitory concentration (MIC) testing according to Clinical and Laboratory Standards Institute (CLSI, formerly NCCLS) guidelines. See: Clinical and Laboratory Standards Institute. Methods for Dilution Antimicrobial Susceptibility Tests for Bacteria that Grow Aerobically; Approved Standard-Seventh Edition. CLSI document M7-A7 [ISBN 1-56238-587-9]. Clinical and Laboratory Standards Institute, 940 West Valley Road, Suite 1400, Wayne, Pa. 19087-1898 USA, 2006; also Clinical and Laboratory Standards Institute. Performance Standards for Antimicrobial Susceptibility Testing; Eighteenth Informational Supplement. CLSI document M100-S18 [ISBN1-56238-653-0]. Clinical and Laboratory Standards Institute.
(§2) The following bacterial strains were used in these MIC determinations:
2) Acinetobacter baumanii/haemolyticus: Multidrug-resistant clinical isolate labeled as AB-3167 in Tables 1, 2 and 3;

[2] = tested on: Pseudomonas aeruginosa UI-18: Wild-type (PA-7); assay: MIC determination (CLSI), PA-7; settings: for MIC: Pseudomonas aeruginosa
Method: as §1, §2
1) Pseudomonas aeruginosa UI-18: Wild-type, labeled as PA-7 in Tables 1, 2 and 3;

[3] = tested on: Klebsiella pneumoniae: Ciprofloxacin-resistant isolate, ESBL, clinical isolate (KP-3700); assay: MIC determination (CLSI), KP-3700
Method: as §1, §2
4) Klebsiella pneumoniae: Ciprofloxacin-resistant isolate, expresses extended-spectrum beta-lactamases (ESBL), clinical isolate, labeled as KP-3700 in Tables 1, 2, and 3.

[4] = tested on: Escherichia coli EC-1: VOGEL, mouse virulent; assay: MIC determination (CLSI), EC-1; settings: for MIC: Escherichia coli
Method: as §1, §2
3) Escherichia coli EC-1: VOGEL, mouse virulent labeled as EC-1 in Tables 1, 2 and 3;

[5] = Acinetobacter baumanii/haemolyticus multidrug-resistant clinical isolate AB-3167
[6] = Pseudomonas aeruginosa UI-18 wild-type PA-7
[7] = Escherichia coli EC-1 VOGEL, mouse virulent

Structure (SMILES) | AB-3167 MIC [1, 5] | PA-7 MIC [2, 6] | KP-3700 MIC [3] | EC-1 MIC [4, 7] | MIC ([1]; Table 3, read-out: AB-3167 MIC) | MIC ([2]; Table 3, read-out: PA-7 MIC) | MIC ([4]; read-out: EC-1 MIC) | other results
CC(CCc1ccc(-c2ccc(OCCO)cc2F)cc1)(C(=O)NO)S(C)(=O)=O (stereo not drawn) [Example 144] | ≧64 mg/L | 1 mg/L | 4 mg/L | 1 mg/L | – | – | – | –
CC(CCc1ccc(Br)cc1)(C(=O)NO)S(C)(=O)=O (stereo not drawn) [Example 32] | ≧64 mg/L | 32 mg/L | ≧64 mg/L | 32 mg/L | – | – | – | –
COc1ccc(-c2ccc(CCC(C)(C(=O)NO)S(C)(=O)=O)cn2)cc1 (stereo not drawn) [Example 120] | ≧64 mg/L | 8 mg/L | 16 mg/L | 4 mg/L | – | – | – | –
CC(CCc1ccc(-c2ccc(CCO)cc2F)cc1)(C(=O)NO)S(C)(=O)=O (stereo not drawn) [Example 155] | ≧64 mg/L | 1 mg/L | 8 mg/L | 2 mg/L | – | – | – | –
C[C@@](CCc1ccc(-c2cc3ccccc3o2)cc1)(C(=O)NO)S(C)(=O)=O [Example 214] | – | – | 4 mg/L | – | – | – | – | AB-3167 MIC ([1]; Acinetobacter baumanii/haemolyticus AB-3167): 8 mg/L; PA-7 MIC ([2]; Pseudomonas aeruginosa UI-18 (PA-7)): 8 mg/L; EC-1 MIC ([4]; Escherichia coli EC-1): 0.125 mg/L
COc1ccc(-c2ccc(CCC(C)(C(=O)NO)S(C)(=O)=O)cc2)c(C)c1 (racemic) [Example 60] | ≧64 mg/L | 4 mg/L | 16 mg/L | 4 mg/L | – | – | – | –
CC(C)c1ccc(-c2ccc(CCC(C)(C(=O)NO)S(C)(=O)=O)cc2)cc1 (stereo not drawn) [Example 102] | 4 mg/L | 4 mg/L | 8 mg/L | 2 mg/L | – | – | – | –
CC(C)(O)Cc1ccc(-c2ccc(CCC(C)(C(=O)NO)S(C)(=O)=O)cc2)cc1 (stereo not drawn) [Example 146] | ≧64 mg/L | 8 mg/L | 32 mg/L | 8 mg/L | – | – | – | –
CC(CCc1ccc(OCc2ccncc2)cc1)(C(=O)NO)S(C)(=O)=O (stereo not drawn) [Example 316, N-hydroxy-2-methyl-2-(methylsulfonyl)-4-[4-(pyridin-4-ylmethoxy)phenyl]butanamide] | – | – | ≧64 mg/L | – | 16 mg/L (≈ 42.3 µM) | 8 mg/L (≈ 21.1 µM) | 32 mg/L (≈ 84.6 µM) | –
Cc1csc(-c2ccc(CCC(C)(C(=O)NO)S(C)(=O)=O)cc2)c1 (stereo not drawn) [Example 46] | ≧64 mg/L | 2 mg/L | 4 mg/L | 2 mg/L | – | – | – | –
Cc1ncccc1COc1ccc(CCC(C)(C(=O)NO)S(C)(=O)=O)cc1 (stereo not drawn) [Example 245, N-hydroxy-2-methyl-4-{4-[(2-methylpyridin-3-yl)methoxy]phenyl}-2-(methylsulfonyl)butanamide] | – | – | ≧64 mg/L | – | ≥ 64 mg/L | 32 mg/L (≈ 81.5 µM) | ≥ 64 mg/L | –
Cc1cccc(COc2ccc(CCC(C)(C(=O)NO)S(C)(=O)=O)cc2)c1F (stereo not drawn) [Example 262, 4-{4-[(2-fluoro-3-methylbenzyl)oxy]phenyl}-N-hydroxy-2-methyl-2-(methylsulfonyl)butanamide] | – | – | 8 mg/L | – | 16 mg/L (≈ 39.1 µM) | 2 mg/L (≈ 4.88 µM) | 1 mg/L (≈ 2.44 µM) | –
CC(CCc1ccc(-c2ccc(F)cc2)cc1)(C(=O)NO)S(C)(=O)=O (stereo not drawn) [Example 27] | 8 mg/L | 1 mg/L | 4 mg/L | 2 mg/L | – | – | – | –
CC(CCc1ccc(OCc2nc(-c3cccc(F)c3F)no2)cc1)(C(=O)NO)S(C)(=O)=O (stereo not drawn) [Example 253, 4-(4-{[3-(2,3-difluorophenyl)-1,2,4-oxadiazol-5-yl]methoxy}phenyl)-N-hydroxy-2-methyl-2-(methylsulfonyl)butanamide] | – | – | ≧64 mg/L | – | ≥ 64 mg/L | 32 mg/L (≈ 66.5 µM) | 8 mg/L (≈ 16.6 µM) | –
C[C@@](CCc1ccc(-c2ccc(F)cc2)cc1)(C(=O)NO)S(C)(=O)=O [Example 110] | 8 mg/L | 0.25 mg/L | 4 mg/L | 2 mg/L | – | – | – | –
CC(CCc1ccc(-c2ccc(C#N)cc2)cn1)(C(=O)NO)S(C)(=O)=O (stereo not drawn) [Example 163] | ≧64 mg/L | 8 mg/L | 32 mg/L | 32 mg/L | – | – | – | –
CCCCCCOc1ccc(CCC(C)(C(=O)NO)S(C)(=O)=O)cc1 (stereo not drawn) [Example 252, 4-[4-(hexyloxy)phenyl]-N-hydroxy-2-methyl-2-(methylsulfonyl)butanamide] | – | – | 32 mg/L | – | 4 mg/L (≈ 10.8 µM) | 16 mg/L (≈ 43.1 µM) | 8 mg/L (≈ 21.5 µM) | –

Structure (SMILES) | AB-3167 MIC [1, 5] | PA-7 MIC [2, 6] | KP-3700 MIC [3] | EC-1 MIC [4, 7] | MIC ([1]; Table 3, read-out: AB-3167 MIC) | MIC ([2]; Table 3, read-out: PA-7 MIC) | MIC ([4]; read-out: EC-1 MIC) | other results
CC(CCc1ccc(OCc2cccc(F)c2)cc1)(C(=O)NO)S(C)(=O)=O (stereo not drawn) [Example 268, 4-{4-[(3-fluorobenzyl)oxy]phenyl}-N-hydroxy-2-methyl-2-(methylsulfonyl)butanamide] | – | – | 8 mg/L | – | 16 mg/L (≈ 40.5 µM) | 8 mg/L (≈ 20.2 µM) | 2 mg/L (≈ 5.06 µM) | –
CCCOc1ccc(CCC(C)(C(=O)NO)S(C)(=O)=O)cc1 (stereo not drawn) [Example 237, N-hydroxy-2-methyl-2-(methylsulfonyl)-4-(4-propoxyphenyl)butanamide] | – | – | ≧64 mg/L | – | ≥ 64 mg/L | 8 mg/L (≈ 24.3 µM) | 32 mg/L (≈ 97.1 µM) | –
CC(CCc1ccc(-c2ccccc2)cn1)(C(=O)NO)S(C)(=O)=O (stereo not drawn) [Example 4, N-Hydroxy-2-methyl-2-(methylsulfonyl)-4-(5-phenylpyridin-2-yl)butanamide] | – | – | ≧64 mg/L | – | – | – | – | MIC ([1]; Table 1, MIC, read-out: AB-3167 (MIC)): ≥ 64 mg/L; MIC ([2]; Table 1, MIC, read-out: PA-7 (MIC)): 8 mg/L (≈ 23 µM); MIC ([4]; read-out: EC-1: (MIC)): 16 mg/L (≈ 45.9 µM)
Cc1ccc(COc2ccc(CCC(C)(C(=O)NO)S(C)(=O)=O)cc2)cn1 (stereo not drawn) [Example 270, N-hydroxy-2-methyl-4-{4-[(6-methylpyridin-3-yl)methoxy]phenyl}-2-(methylsulfonyl)butanamide] | – | – | ≧64 mg/L | – | ≥ 64 mg/L | 32 mg/L (≈ 81.5 µM) | ≥ 64 mg/L | –
Cc1ccc(C)c(COc2ccc(CCC(C)(C(=O)NO)S(C)(=O)=O)cc2)c1 (stereo not drawn) [Example 254, 4-{4-[(2,5-dimethylbenzyl)oxy]phenyl}-N-hydroxy-2-methyl-2-(methylsulfonyl)butanamide] | – | – | ≧64 mg/L | – | 16 mg/L (≈ 39.5 µM) | 16 mg/L (≈ 39.5 µM) | 8 mg/L (≈ 19.7 µM) | –
CC(CCc1ccc(-c2ccc(F)c(F)c2)cc1)(C(=O)NO)S(C)(=O)=O (racemic) [Example 75] | 8 mg/L | 0.5 mg/L | 4 mg/L | 1 mg/L | – | – | – | –
CCC(CC)COc1ccc(CCC(C)(C(=O)NO)S(C)(=O)=O)cc1 (stereo not drawn) [Example 239, 4-[4-(2-ethylbutoxy)phenyl]-N-hydroxy-2-methyl-2-(methylsulfonyl)butanamide] | – | – | ≧64 mg/L | – | 4 mg/L (≈ 10.8 µM) | 8 mg/L (≈ 21.5 µM) | 16 mg/L (≈ 43.1 µM) | –
COc1cccc(-c2ccc(CCC(C)(C(=O)NO)S(C)(=O)=O)cn2)c1F (stereo not drawn) [Example 134] | ≧64 mg/L | 4 mg/L | 16 mg/L | 4 mg/L | – | – | – | –
CC(CCc1ccc(-c2cnc(C#N)cn2)cc1)(C(=O)NO)S(C)(=O)=O (stereo not drawn) [Example 130] | ≧64 mg/L | 16 mg/L | ≧64 mg/L | 16 mg/L | – | – | – | –
COc1ccc(-c2ccc(CCC(C)(C(=O)NO)S(C)(=O)=O)cc2)cc1OC (stereo not drawn) [Example 33] | ≧64 mg/L | 16 mg/L | 32 mg/L | 16 mg/L | – | – | – | –
CNS(=O)(=O)c1ccc(-c2ccc(CCC(C)(C(=O)NO)S(C)(=O)=O)cc2)cc1 (racemic) [Example 68] | ≧64 mg/L | 4 mg/L | 32 mg/L | 32 mg/L | – | – | – | –
CC(CCc1ccc(-c2ccc(OCCCCN)cc2)cc1)(C(=O)NO)S(C)(=O)=O (stereo not drawn) [Example 118] | ≧64 mg/L | 16 mg/L | ≧64 mg/L | 32 mg/L | – | – | – | –
CSc1ccc(-c2ccc(CCC(C)(C(=O)NO)S(C)(=O)=O)cc2)cc1 (stereo not drawn) [Example 40] | 16 mg/L | 2 mg/L | 2 mg/L | 0.5 mg/L | – | – | – | –
CN(C)c1ccc(-c2ccc(CCC(C)(C(=O)NO)S(C)(=O)=O)cc2)cn1 (stereo not drawn) [Example 35] | ≧64 mg/L | 32 mg/L | 16 mg/L | 4 mg/L | – | – | – | –
Cn1cc(-c2ccc(CCC(C)(C(=O)NO)S(C)(=O)=O)cc2)cn1 (stereo not drawn) [Example 101] | ≧64 mg/L | 8 mg/L | 32 mg/L | 32 mg/L | – | – | – | –
Cc1ccc(COc2ccc(CCC(C)(C(=O)NO)S(C)(=O)=O)cc2)cc1 (stereo not drawn) [Example 263, N-hydroxy-2-methyl-4-{4-[(4-methylbenzyl)oxy]phenyl}-2-(methylsulfonyl)butanamide] | – | – | 8 mg/L | – | 16 mg/L (≈ 40.9 µM) | 4 mg/L (≈ 10.2 µM) | 2 mg/L (≈ 5.11 µM) | –
